Among the data in US12692261B2, “Substituted heterocyclic compounds and therapeutic uses thereof” (Bayer Aktiengesellschaft, priority 2020, dated 2026) are IC50 values, retold here.

The target of experiment [1] is T1, full-length human CSNK1A1 (Homo sapiens, UniProt P48729).
T1 construct: N-terminal Glutathion-S-Transferase (GST) and full-length human CSNK1A1; purchased Life Technologies PV4174; host or cells: baculovirus infected insect cells
Briefly: CSNK1A1 Assay 2 (ADP-Glo, 1 μM ATP, substrate biotin-Ahx-KRRRAL-pS-VASLPGL). The format is biochemical. To be noted: Table 3, read-out: CSNK1A1 Assay 2 IC50 [mol/l] (median). The gist of the method:
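GST-tagged full-length human CSNK1A1 from baculovirus-infected insect cells (about 0.0375 ng/μL), preincubated 15 min at 22 °C with compound in HEPES pH 7.5 buffer, with 1 μM ATP and biotin-Ahx-KRRRAL-pS-VASLPGL substrate. ADP formed read by ADP-Glo luminescence.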

In experiment [2] the target is T2, wild-type Epidermal Growth Factor Receptor (EGFR) (Homo sapiens, UniProt P00533).
T2 construct: a fragment of human EGFR (amino acids R669 to A1210); made in house; host or cells: Sf9 insect cells
As to the kind of experiment: WT-EGFR Kinase Assay (TR-FRET, 2 mM ATP). The format is biochemical. The gist of the method: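 GST-fused human EGFR fragment (R669-A1210) from Sf9 cells, typically 7.6 pg/μL, pre-incubated with compound 15 min at 22° C in Hepes pH 7.0 buffer with MgCl2, DTT and vanadate; biotinylated peptide substrate. After EDTA stop, phosphopeptide detected by TR-FRET (anti-phosphotyrosine Tb-cryptate/streptavidin-XL665), 665/620 nm emission ratio.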

Setting [3] is: EGFR Wildtyp 2 mM ATP IC50 [mol/l] (median), Table 4.
Setting [4] is: read-out: EGFR Wildtyp 2 mM ATP IC50 [mol/l] (median), Table 4.

Values joined by “and” are separate entries in the source; they are usually repeats but may differ in a detail not shown here. Equal values may be shown once. Read-outs that look alike come from different tables or passages of the source.

T1 sequence (P48729 whole entry): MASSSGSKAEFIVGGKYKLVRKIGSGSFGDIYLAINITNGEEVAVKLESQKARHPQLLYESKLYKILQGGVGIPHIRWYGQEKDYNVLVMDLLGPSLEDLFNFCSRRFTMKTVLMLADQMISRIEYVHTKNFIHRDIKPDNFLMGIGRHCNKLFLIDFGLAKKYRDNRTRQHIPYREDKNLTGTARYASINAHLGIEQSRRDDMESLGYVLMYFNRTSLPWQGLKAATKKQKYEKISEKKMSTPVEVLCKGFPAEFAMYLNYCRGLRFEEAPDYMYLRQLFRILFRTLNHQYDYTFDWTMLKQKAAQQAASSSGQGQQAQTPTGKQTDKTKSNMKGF
T2 sequence (P00533 669-1210): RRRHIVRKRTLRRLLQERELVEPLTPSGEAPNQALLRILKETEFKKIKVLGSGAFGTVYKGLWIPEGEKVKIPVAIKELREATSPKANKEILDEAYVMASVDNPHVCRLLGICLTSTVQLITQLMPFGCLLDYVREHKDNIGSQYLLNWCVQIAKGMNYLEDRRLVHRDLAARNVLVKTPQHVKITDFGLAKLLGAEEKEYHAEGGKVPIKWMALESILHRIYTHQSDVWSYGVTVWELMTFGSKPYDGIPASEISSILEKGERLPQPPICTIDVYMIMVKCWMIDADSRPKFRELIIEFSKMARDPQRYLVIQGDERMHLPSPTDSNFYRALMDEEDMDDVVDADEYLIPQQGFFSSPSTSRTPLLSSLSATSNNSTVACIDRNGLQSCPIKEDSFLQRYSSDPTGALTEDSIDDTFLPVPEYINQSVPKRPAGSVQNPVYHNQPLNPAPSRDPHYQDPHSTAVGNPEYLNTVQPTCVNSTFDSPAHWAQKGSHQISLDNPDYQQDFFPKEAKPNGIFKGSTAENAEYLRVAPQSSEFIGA

`CN1CCN(c2cc(F)nc3c(-c4ccccn4)c(-c4ccnc(NC(=O)C(CC(F)F)c5ccc(F)cc5)c4)[nH]c23)CC1` (racemic) [Example 56, (2RS)-4,4-difluoro-N-{4-[5-fluoro-7-(4-methylpiperazin-1-yl)-3-(pyridin-2-yl)-1H-pyrrolo[3,2-b]pyridin-2-yl]pyridin-2-yl}-2-(4-fluorophenyl)butanamide]: the IC50 in experiment [1] is 3.19 nM; in experiment [2] (setting [3]), over 20000 nM.

Consider `COc1cnc2c(-c3ccccn3)c(-c3ccnc(NC(=O)C(CC(F)F)c4ccc(F)cc4)c3)[nH]c2c1` (single isomer, unassigned) [Example 83, 4,4-difluoro-2-(4-fluorophenyl)-N-{4-[6-methoxy-3-(pyridin-2-yl)-1H-pyrrolo[3,2-b]pyridin-2-yl]pyridin-2-yl}butanamide], for which the IC50 was 9.86 nM in experiment [1] and over 20000 nM in experiment [2] (setting [4]).

With `O=C(Nc1cc(-c2[nH]c3c(OC[C@@H]4COCCO4)cc(F)nc3c2-c2ccccn2)ccn1)C(CC(F)F)c1ccc(F)cc1` (single isomer, unassigned) [Example 59, (2R or S)—N-{4-[7-{[(2S)-1,4-dioxan-2-yl]methoxy}-5-fluoro-3-(pyridin-2-yl)-1H-pyrrolo[3,2-b]pyridin-2-yl]pyridin-2-yl}-4,4-difluoro-2-(4-fluorophenyl)butanamide], the IC50 in experiment [1] was 12.7 nM; in experiment [2] (setting [4]), over 20000 nM.

As for `O=C(Nc1cc(-c2[nH]c3ncc(F)nc3c2-c2ccccn2)ccn1)C(CC(F)F)c1ccc(F)cc1` (single isomer, unassigned) [Example 64, (2R or S)-4,4-difluoro-2-(4-fluorophenyl)-N-{4-[2-fluoro-7-(pyridin-2-yl)-5H-pyrrolo[2,3-b]pyrazin-6-yl]pyridin-2-yl}butanamide], the IC50 in experiment [1] was 23 nM; in experiment [2] (setting [4]), over 20000 nM.

Regarding `O=C(Nc1cc(-c2[nH]c3c(OCC(F)F)ncnc3c2-c2ccccn2)ccn1)C(CC(F)F)c1ccc(F)cc1` (single isomer, unassigned) [Example 79, (2R or S)—N-{4-[4-(2,2-difluoroethoxy)-7-(pyridin-2-yl)-5H-pyrrolo[3,2-d]pyrimidin-6-yl]pyridin-2-yl}-4,4-difluoro-2-(4-fluorophenyl)butanamide], the IC50 in experiment [1] is 3.1 nM; in experiment [2] (setting [3]) it was over 20000 nM.

Turning to `O=C(Nc1cc(-c2[nH]c3c(N4CCOCC4)cc(F)nc3c2-c2ccccn2)ccn1)C(CC(F)F)c1ccc(F)cc1` (racemic) [Example 69, (2RS)-4,4-difluoro-N-{4-[5-fluoro-7-(morpholin-4-yl)-3-(pyridin-2-yl)-1H-pyrrolo[3,2-b]pyridin-2-yl]pyridin-2-yl}-2-(4-fluorophenyl)butanamide], the IC50 is 10.4 nM in experiment [1] and over 20000 nM in experiment [2] (setting [3]).

Turning to `Cc1ccnc2c(-c3ccccn3)c(-c3ccnc(NC(=O)C(CC(F)F)c4ccc(F)cc4)c3)[nH]c12` (stereo not drawn) [Example 84, 4,4-difluoro-2-(4-fluorophenyl)-N-{4-[7-methyl-3-(pyridin-2-yl)-1H-pyrrolo[3,2-b]pyridin-2-yl]pyridin-2-yl}butanamide], the IC50 in experiment [1] was 4.77 nM; in experiment [2] (setting [3]) it was over 20000 nM.

`COc1cnc2c(-c3ccccn3)c(-c3ccnc(NC(=O)C(CC(F)F)c4ccc(F)cc4)c3)[nH]c2c1` (stereo not drawn) [Example 81, 4,4-difluoro-2-(4-fluorophenyl)-N-{4-[6-methoxy-3-(pyridin-2-yl)-1H-pyrrolo[3,2-b]pyridin-2-yl]pyridin-2-yl}butanamide]: the IC50 was 4.02 nM in experiment [1] and over 20000 nM in experiment [2] (setting [3]).

In the case of `O=C(Nc1cc(-c2[nH]c3ccnnc3c2-c2ccccn2)ccn1)C(CC(F)F)c1ccc(F)cc1` (single isomer, unassigned) [Example 67, (2R or S)-4,4-difluoro-2-(4-fluorophenyl)-N-{4-[7-(pyridin-2-yl)-5H-pyrrolo[3,2-c]pyridazin-6-yl]pyridin-2-yl}butanamide], the IC50 was 22 nM in experiment [1] and over 20000 nM in experiment [2] (setting [4]).

Regarding `O=C(Nc1cc(-c2[nH]c3c(O[C@H]4CCOC4)ncnc3c2-c2ccccn2)ccn1)C(CC(F)F)c1ccc(F)cc1` (mixture of isomers) [Example 72, (2RS)-4,4-difluoro-2-(4-fluorophenyl)-N-{4-[4-{[(3S)-oxolan-3-yl]oxy}-7-(pyridin-2-yl)-5H-pyrrolo[3,2-d]pyrimidin-6-yl]pyridin-2-yl}butanamide], the IC50 was 7.1 nM in experiment [1] and over 20000 nM in experiment [2] (setting [3]).

As for `O=C(Nc1cc(-c2[nH]c3cc(Cl)nnc3c2-c2ccccn2)ccn1)C(CC(F)F)c1ccc(F)cc1` (racemic) [Example 68, (2RS)—N-{4-[3-chloro-7-(pyridin-2-yl)-5H-pyrrolo[3,2-c]pyridazin-6-yl]pyridin-2-yl}-4,4-difluoro-2-(4-fluorophenyl)butanamide], the IC50 is 6.93 nM in experiment [1] and over 20000 nM in experiment [2] (setting [3]).

As to `O=C(Nc1cc(-c2[nH]c3c(OCC(F)F)ncnc3c2-c2ccccn2)ccn1)C(CC(F)F)c1ccc(F)cc1` (racemic) [Example 78, (2RS)—N-{4-[4-(2,2-difluoroethoxy)-7-(pyridin-2-yl)-5H-pyrrolo[3,2-d]pyrimidin-6-yl]pyridin-2-yl}-4,4-difluoro-2-(4-fluorophenyl)butanamide], the figures for the IC50 in experiment [1] and in experiment [2] (setting [3]) were 5.16 nM and over 20000 nM, respectively.

`O=C(Nc1cc(-c2[nH]c3c(O[C@H]4CCOC4)ncnc3c2-c2ccccn2)ccn1)C(CC(F)F)c1ccc(F)cc1` (single isomer, unassigned) [Example 73, (2R or S)-4,4-difluoro-2-(4-fluorophenyl)-N-{4-[4-{[(3S)-oxolan-3-yl]oxy}-7-(pyridin-2-yl)-5H-pyrrolo[3,2-d]pyrimidin-6-yl]pyridin-2-yl}butanamide]: the IC50 in experiment [1] was 4.16 nM; in experiment [2] (setting [3]), over 20000 nM.

Regarding `O=C(Nc1cc(-c2[nH]c3ccc(F)nc3c2-c2ccccn2)ccn1)C(CC(F)F)c1ccc(F)cc1` (racemic) [Example 1, 4,4-difluoro-2-(4-fluorophenyl)-N-{4-[5-fluoro-3-(pyridin-2-yl)-1H-pyrrolo[3,2-b]pyridin-2-yl]pyridin-2-yl}butanamide], the IC50 was 10.1 nM in experiment [1] and over 20000 nM in experiment [2] (setting [3]).

On to `O=C(Nc1cc(-c2[nH]c3ncc(F)nc3c2-c2ccccn2)ccn1)C(CC(F)F)c1ccc(F)cc1` (single isomer, unassigned) [Example 63, (2R or S)-4,4-difluoro-2-(4-fluorophenyl)-N-{4-[2-fluoro-7-(pyridin-2-yl)-5H-pyrrolo[2,3-b]pyrazin-6-yl]pyridin-2-yl}butanamide], for which the IC50 in experiment [1] was 1.48 nM; in experiment [2] (setting [3]), over 20000 nM.

Consider `O=C(Nc1cc(-c2[nH]c3cc(Cl)cnc3c2-c2ccccn2)ccn1)C(CC(F)F)c1ccc(F)cc1` (single isomer, unassigned) [Example 88, (+)—N-{4-[6-chloro-3-(pyridin-2-yl)-1H-pyrrolo[3,2-b]pyridin-2-yl]pyridin-2-yl}-4,4-difluoro-2-(4-fluorophenyl)butanamide], for which the IC50 in experiment [1] is 4.72 nM; in experiment [2] (setting [3]) it was over 20000 nM.

For `O=C(Nc1cc(-c2[nH]c3c(OC[C@H]4COCCO4)cc(F)nc3c2-c2ccccn2)ccn1)C(CC(F)F)c1ccc(F)cc1` (single isomer, unassigned) [Example 51, (2R or S)—N-{4-[7-{[(2R)-1,4-dioxan-2-yl]methoxy}-5-fluoro-3-(pyridin-2-yl)-1H-pyrrolo[3,2-b]pyridin-2-yl]pyridin-2-yl}-4,4-difluoro-2-(4-fluorophenyl)butanamide], the IC50 in experiment [1] is 4.65 nM; in experiment [2] (setting [3]), over 20000 nM.

Regarding `O=C(Nc1cc(-c2[nH]c3ccc(F)nc3c2-c2ccccn2)ccn1)[C@@H](CC(F)F)c1ccc(F)cc1` (single isomer, unassigned) [Example 2], the IC50 in experiment [1] was 1.36 nM; in experiment [2] (setting [3]), 18400 nM and > 20000 nM.

In the case of `O=C(Nc1cc(-c2[nH]c3c(OC[C@@H]4COCCO4)cc(F)nc3c2-c2ccccn2)ccn1)C(CC(F)F)c1ccc(F)cc1` (single isomer, unassigned) [Example 58, (2R or S)—N-{4-[7-{[(2S)-1,4-dioxan-2-yl]methoxy}-5-fluoro-3-(pyridin-2-yl)-1H-pyrrolo[3,2-b]pyridin-2-yl]pyridin-2-yl}-4,4-difluoro-2-(4-fluorophenyl)butanamide], the IC50 in experiment [1] is 3.56 nM; in experiment [2] (setting [3]), over 20000 nM.

For the compound `COc1cnc2c(-c3ccccn3)c(-c3ccnc(NC(=O)C(CC(F)F)c4ccc(F)cc4)c3)[nH]c2c1` (single isomer, unassigned) [Example 82, 4,4-difluoro-2-(4-fluorophenyl)-N-{4-[6-methoxy-3-(pyridin-2-yl)-1H-pyrrolo[3,2-b]pyridin-2-yl]pyridin-2-yl}butanamide], the IC50 in experiment [1] is 2.68 nM; in experiment [2] (setting [3]) it was over 20000 nM.

For `O=C(Nc1cc(-c2[nH]c3c(O[C@H]4CCOC4)cc(F)nc3c2-c2ccccn2)ccn1)C(CC(F)F)c1ccc(F)cc1` (single isomer, unassigned) [Example 55, (2R or S)-4,4-difluoro-N-{4-[5-fluoro-7-{[(3S)-oxolan-3-yl]oxy}-3-(pyridin-2-yl)-1H-pyrrolo[3,2-b]pyridin-2-yl]pyridin-2-yl}-2-(4-fluorophenyl)butanamide], the IC50 in experiment [1] was 18.3 nM; in experiment [2] (setting [4]) it was over 20000 nM.
